# Results taken from patent US20250064834A1, “COMPOSITIONS AND METHODS FOR TREATMENT AND PREVENTION OF DISEASES UTILIZING TIRILAZAD SALTS” (priority 2022, published 2025).
# Test system: mini-explants from the dermoepidermal junction of the hoof
# Assay: In vitro study of hoof laminar mini-explants pre-incubated with tirilazad, then Bothrops alternatus venom, as a model for laminitis; histopathology (H-E, PAS)
# Assay type: cell-based
# Procedure: An in vitro study was conducted to analyze the protective effects of tirilazad mesylate on cellular degeneration as a result of Bothrops alternatus snake venom as a model for laminitis. Explant tissue samples were obtained from the dermoepidermal junction of the hoof of the right forelimb under nervous system block without the need for euthanasia.
# Under sterile conditions, laminar cuts (mini-explants) were made of each explant and the tissue washed with physiological solution. The mini-explants were pre-incubated for 5 hours with tirilazad and then for 24 hours with Bothrops venom. Culture medium was as follows: Dulbecco's […] (DMEM, GIBCO-Invitrogen) with 10% heat-inactivated fetal bovine serum (FBS, GIBCO-Invitrogen), L-Glutamine (29.2 mg/mL), Penicillin (10,000 units/mL), and Streptomycin (10,000 μg/mL, GIBCO-Invitrogen) as antibiotics.
# Histopathology: Tissues were processed with classical histological techniques, e.g., cutting by microtome (Minot) and stained with hematoxylin-eosin (H-E) and Periodic Acid Schiff (PAS) stains.
# [1] = Tirilazad 1 μM (5 hours pre-incubation) + venom 75 μg/ml (24 hours), listed as tirilazad
# [2] = Tirilazad 1 μM, no venom, listed as tirilazad
# [3] = Tirilazad 3 μM (5 hours pre-incubation) + venom 75 μg/ml (24 hours)
# [4] = Tirilazad 3 μM, no venom, listed as tirilazad
# [5] = Tirilazad 10 μM (5 hours pre-incubation) + venom 75 μg/ml (24 hours), listed as tirilazad
# [6] = Tirilazad 10 μM, no venom, listed as tirilazad
# [7] = Tirilazad 20 μM (5 hours pre-incubation) + venom 75 μg/ml (24 hours)
structure (smiles),measurement,setting,value
"C[C@@H]1C[C@H]2[C@@H]3CCC4=CC(=O)C=C[C@]4(C)C3=CC[C@]2(C)[C@H]1C(=O)CN1CCN(c2cc(N3CCCC3)nc(N3CCCC3)n2)CC1 [Tirilazad, 16α-methyl-21-[4-[2,6-bis(1-pyrrolidinyl)-4-pyrimidinyl]-1-piperazinyl]pregna-1,4,9(11)-triene-3,20-dione]",Separation of Basement Membrane,Tirilazad 1 μM (5 hours pre-incubation) + venom 75 μg/ml (24 hours),No
same,Cell Nuclei,[1],intense presence of altered epidermal cells
same,Pyknosis or Karyopyknosis,[1],with nuclear pyknosis
same,Separation of Basement Membrane,[1],did not show separation of the basement membrane
same,Pyknosis or Karyopyknosis,"Tirilazad 1 μM, no venom",No
same,Separation of Basement Membrane,"Tirilazad 1 μM, no venom",No
same,Cell Nuclei,[2],epidermal cells were normal and showed preserved cytoplasmic and nuclear structure
same,Separation of Basement Membrane,[2],did not show separation of the basement membrane
same,Cell Nuclei,[3],intense presence of altered epidermal cells
same,Pyknosis or Karyopyknosis,[3],nuclear pyknosis predominating
same,Separation of Basement Membrane,[3],slight separation of the basement membrane
same,Separation of Basement Membrane,"Tirilazad 3 μM, no venom",No
same,Cell Nuclei,[4],slight epidermal cytoplasmic and nuclear alteration
same,Separation of Basement Membrane,[4],did not show separation of the basement membrane
same,Separation of Basement Membrane,Tirilazad 10 μM (5 hours pre-incubation) + venom 75 μg/ml (24 hours),No
same,Cell Nuclei,[5],Moderate presence of altered epidermal cells
same,Pyknosis or Karyopyknosis,[5],moderate nuclear pyknosis
same,Separation of Basement Membrane,[5],did not show separation of the basement membrane
same,Pyknosis or Karyopyknosis,"Tirilazad 10 μM, no venom",No
same,Separation of Basement Membrane,"Tirilazad 10 μM, no venom",No
same,Cell Nuclei,[6],epidermal cells were normal and showed preserved cytoplasmic and nuclear structure
same,Separation of Basement Membrane,[6],did not show separation of the basement membrane
same,Cell Nuclei,[7],intense presence of altered epidermal cells
same,Pyknosis or Karyopyknosis,[7],intense nuclear pyknosis
same,Separation of Basement Membrane,[7],intense separation of the basement membrane
same,Cell Nuclei,"Tirilazad 20 μM, no venom",epidermal cells were normal and showed preserved cytoplasmic and nuclear structure
same,Pyknosis or Karyopyknosis,"Tirilazad 20 μM, no venom",No
same,Separation of Basement Membrane,"Tirilazad 20 μM, no venom",intense separation of the basement membrane
same,effect on cellular structure in hoof tissue,overall conclusion of the explant study,provides a protective and/or therapeutic effect
